Reference: patent publication US20080031968A1, “Methods for increasing cellular energy expenditure” (priority 2005, published 2008)

How the values were obtained:
[1] = system: HSMM; assay: D2 activity in human skeletal muscle myoblasts; type: cell-based; conditions: 16 h incubation
Description: HSMM were obtained from Cambrex (Walkersville, Md.) and were cultured according to the suppliers instructions. D2 activity measurements were performed after a 16 h incubation with the indicated compounds. For the cAMP measurements, cells were preincubated 12 h in Opti-MEM (Life Technologies, Cergy Pontoise, France), supplemented with 1 mM IBMX. Then medium was changed and cells were incubated for another 1 h in Opti-MEM with 1 mM IBMX, after which the medium was replaced for Opti-MEM with 1 mM IBMX and the indicated compounds. After 30 minutes the cells were lysed for cAMP analysis.

[2] = system: BAT cells; assay: Isolated mouse BAT cells, D2 mRNA, D2 activity and cAMP; type: cell-based; conditions: BAT cells
Description: (§1) An OGTT was performed in animals that were fasted overnight. Glucose was administered by gavage at a dose of 2 g/kg. An IPITT was done in 4 h fasted animals. Insulin was injected at a dose of 0.75 U/kg. Glucose quantification was done with the Maxi Kit Glucometer 4 (Bayer Diagnostic, Puteaux, France) or Glucose RTU (bioMérieux Inc., Marcy l'Etoile, France). Plasma insulin concentrations were measured using ELISA (Cristal Chem Inc., Downers Grove, Ill.). Nonesterified fatty acids, triglycerides, ketone bodies, BA and total cholesterol were determined by enzymatic assays (Roche, Mannheim, Germany). cAMP was measured using the cAMP-Screen system (Applied Biosystems, Bedford, Mass.).

[3] = system: BAT of C57BL/6J mice; assay: BAT gene expression by microarray and Q-RT-PCR; type: in vivo, mouse; conditions: GW4064 treatment
Description: For microarray analysis, RNA was isolated from BAT using the RNeasy mini kit (QIAGEN, Courtaboeuf, France). Equal amounts of RNA from mice in each group were pooled (n=3 or 4 mice) and used for cDNA synthesis. After second-strand cDNA synthesis (Life Technologies, Cergy Pontoise, France), in vitro transcription was performed with biotinylated UTP and CTP (Enzo Diagnostics, Farmingdale, N.Y.). Fragmented cRNA samples were hybridized to the Affymetrix MOE430A microarray. The raw data was analyzed using the Microarray Suite Software version 5.0 (MAS5.0, Affymetrix, Santa Clara, Calif.).

[4] = system: SHP+/+ and SHP-/- mice; assay: FXR agonists in SHP+/+ and SHP-/- mice; type: in vivo, mouse; conditions: for hepatic expression of SREBP-1c, ME, CYP7A1 and ANGPTL3: 1-day treatment
Description: (§2) Male C57BL/6J, KK-Ay, and ob/ob (C57BL/6J background) mice, 6-10 weeks of age, were obtained from Elevage Janvier (Le Genest St. Isle, France), CLEA Japan Inc. (Tokyo, Japan), and The Jackson Laboratory (Bar Harbor, Me., USA), respectively. All mice were maintained in a temperature-controlled (23° C.) facility with a 12-hour light/dark cycle and were given free access to food and water. The study protocols were approved by the institutional review boards. The body weight and food intake were measured every second day. The control and high-fat diet was obtained from UAR (Villemoisson sur Orge, France). […] The mice were fasted 4 hours before harvesting blood for subsequent lipid measurements, and tissues for RNA isolation, lipid measurements, and histology.

[5] = system: ob/ob mice; assay: GW4064 treatment of ob/ob mice, serum TG; type: in vivo, mouse; conditions: chow-fed ob/ob mice, 1 week, intraperitoneal 10 mg/kg daily
Description: Male C57BL/6J, KK-Ay, and ob/ob (C57BL/6J background) mice, 6-10 weeks of age, were obtained from Elevage Janvier (Le Genest St. Isle, France), CLEA Japan Inc. (Tokyo, Japan), and The Jackson Laboratory (Bar Harbor, Me., USA), respectively. All mice were maintained in a temperature-controlled (23° C.) facility with a 12-hour light/dark cycle and were given free access to food and water. The study protocols were approved by the institutional review boards. The body weight and food intake were measured every second day. The control and high-fat diet was obtained from UAR (Villemoisson sur Orge, France). The control diet (EQ12310) contained 16.8% protein, 73.5% carbohydrate, and 4.8% fat, whereas the high-fat diet (EQ/ID12309) contained 23.0% protein, 35.5% carbohydrate, and 35.9% fat. For treatment with bile acids, mice were fed diets with 0.5% (w/w) CA. The mice were fasted 4 hours before harvesting blood for subsequent lipid measurements, and tissues for RNA isolation, lipid measurements, and histology. Male SHP−/−mice and littermate SHP+/+ controls (C57/BL6-A129/SvJ mixed strain) of 8 weeks were fed the CA diet as just described or gavaged with GW4064 dissolved in corn oil at 30 mg/kg. […]
Serum total cholesterol, TGs, and lipoprotein cholesterol and TG profiles were measured as described (Rocchi, et al., Mol Cell. 8:737-747 (2001); Picard, et al., Cell 111:931-941 (2002)). […]

[6] = system: KK-Ay mice; assay: In vivo VLDL TG production (Tyloxapol) in KK-Ay mice; set-up: species or system mouse; conditions: 1-week administration of GW4064
[7] = system: C57BL/6J mice; assay: Diet-induced obesity in C57BL/6J mice; type: in vivo, mouse
Description: Male C57BL/6J and KK-Ay mice, 6-7 weeks of age, were obtained from Charles River Laboratories France (l'Arbresle, France) and CLEA Japan Inc. (Tokyo, Japan), respectively. […] All mice were maintained in a temperature-controlled (23° C.) facility with a 12 h light/dark cycle and were given free access to food and water. The control and high-fat diet was obtained from UAR (Villemoison surOrge, France). […] GW4064 was suspended in peanut oil and mixed with the high fat diet at a concentration of 180 mg per kg of food. […] The mice were fasted 4 h before harvesting blood for subsequent blood measurements, and tissues for RNA isolation, lipid measurements and histology. Oxygen consumption was measured using the Oxymax apparatus (Columbus Instruments, Columbus, Ohio).
as §1
Pieces of mouse tissues were fixed in Bouin's solution, dehydrated in ethanol, embedded in paraffin, and cut at a thickness of 5 μm. Sections were deparaffinized, rehydrated, and stained with haematoxylin and eosin. Transmission electron microscopy was then performed.

[8] = system: rats; conditions: rats treated for 7 days; cited from earlier work
[9] = system: KK-Ay mice; assay: CA or GW4064 treatment of KK-Ay mice, serum lipids; type: in vivo, mouse; conditions: chow-fed KK-Ay mice, 1 week, intraperitoneal 10 mg/kg daily
Description: as §2
For measurement of liver TGs and cholesterol content, a liver was homogenized in chloroform/methanol (2:1 v/v) using a Polytron tissue grinder (Kinematica AG, Luzern, Switzerland). Lipid extracts were prepared by the classical Folch method. Extracts were dried under N2 flow and resuspended in isopropanol.

[10] = system: HSMM; assay: cAMP levels in human skeletal muscle myoblasts; type: cell-based; conditions: 1 mM IBMX, 30 minutes
Description: HSMM were obtained from Cambrex (Walkersville, Md.) and were cultured according to the suppliers instructions. […] For the cAMP measurements, cells were preincubated 12 h in Opti-MEM (Life Technologies, Cergy Pontoise, France), supplemented with 1 mM IBMX. Then medium was changed and cells were incubated for another 1 h in Opti-MEM with 1 mM IBMX, after which the medium was replaced for Opti-MEM with 1 mM IBMX and the indicated compounds. After 30 minutes the cells were lysed for cAMP analysis.

## CC(C)c1onc(-c2c(Cl)cccc2Cl)c1COc1ccc(/C=C/c2cccc(C(=O)O)c2)c(Cl)c1 [GW4064]
[1]
  D2 activity: did not induce
[2]
  cAMP levels: did not increase
[3]
  thermogenic gene response: did not result in an induction
[4]; SHP+/+ mice, 0, 3 and 7 days
  serum TGs: significantly lowered
[4]; SHP+/+ mice
  hepatic expression of SREBP-1c, ME, CYP7A1 and ANGPTL3: significantly reduced
[4]; SHP-/- mice
  decrease in serum TGs: completely abolished
  hepatic expression of SREBP-1c, ME, CYP7A1 and ANGPTL3: no decrease
[5]
  serum TG levels: potently lowered
[6]
  VLDL secretion: significantly lowered
[7]; high fat diet supplemented with GW4064, 15 mg/kg daily
  effect against diet-induced obesity: no protective effect
[7]; mice on a high fat diet with GW4064
  body weight gain: significantly increased
[8]
  plasma TG: decreased
[9]
  serum TG levels: potently lowered
[10]
  cAMP levels: did not increase
